Patent publication US20110230433A1, “COMPOSITIONS AND METHODS FOR TREATMENT OF CANCER” (UNIVERSITY OF WASHINGTON, priority 2010, published 2011)

Experiments:
HCT116 = assay: Viability after 48 hr culture with analog, crystal violet staining; assay type: cell-based, human; conditions: HCT116 (mismatch repair deficient)
Protocol: (§1) The concentration of each analog used in the serial transfer experiments can be 50% less than the highest dose at which there is no reduction in viability. Analogs that fail to be toxic can be used at 100 μM.
(§2) In Table 2, mismatch repair proficient and deficient cell lines were assayed for viability after growing for 48 hr with the indicated analogs in nM to mM concentrations.

SW480 = assay: as above; assay type: cell-based, human; conditions: SW480 (mismatch repair proficient)
Protocol: as §1, §2

E. coli = E. coli lacking repair of 8-OH-dG; cited from earlier work
DNA = conditions: cited from earlier work
dG = conditions: cited from earlier work
DNA polymerases = conditions: copying past site specific residues by DNA polymerases in vitro; cited from earlier work
HIV = HIV in tissue culture; cited from earlier work
[1] = system: human cells deficient in O^6-methyl transferase; conditions: compared to correct base-pairing with cytidine; cited from earlier work

Compound	Highest dose without decreased viability (HCT116)	Highest dose without decreased viability (SW480)	further results
Nc1ncc2[nH]cnc2n1 [2′-aminopurine, 2-Aminopurine]	0.00033 mM	0.00033 mM	–
Nc1ncc2ncn([C@H]3C[C@H](O)[C@@H](CO)O3)c2n1 [2′-deoxyaminopurine, 2-Amino-9-(β-D-2′-deoxyribfuranosyl)purine]	>3.3 mM	>3.3 mM	–
OC[C@H]1O[C@@H](n2cnc3c(O)ncnc32)C[C@@H]1O [2′-deoxyinosine]	>3.3 mM	>3.3 mM	–
Nc1nc(=O)n([C@H]2C[C@H](O)[C@@H](CO)O2)cc1O [5-hydroxy-2′-deoxycytidine]	0.03 mM	0.3 mM	–
Nc1nc2c(nc(O)n2[C@H]2C[C@H](O)[C@@H](CO)O2)c(=O)[nH]1 [8-OH-dG, 8-hydroxy deoxyguanosine]	–	–	increase in mutagenesis (E. coli): 1000 fold
CCN(N=O)C(N)=O [ENU, ethylnitrosourea, reference compound]	1.1 mg/mL	0.6 mg/mL	–
OC[C@H]1O[C@@H](n2cnc3c2ncn2ccnc32)C[C@@H]1O [Etheno-dA, 1,N6-etheno dA]	–	–	frequency of non-complementary base-pairs (DNA): approximately 10%
O=c1n([C@H]2C[C@H](O)[C@@H](CO)O2)ccc2nccn12 [Etheno-dC, N^3,4-etheno dC]	–	–	frequency of non-complementary base-pairs (DNA): approximately 10%
O=c1[nH]c2nccn2c2c1ncn2C1C[C@H](O)[C@@H](CO)O1 (some centres unmarked) [Etheno-dG, N^2,3-etheno dG]	–	–	frequency of non-complementary base-pairs (DNA): approximately 10%
NC1=NC(=O)N([C@H]2C[C@H](O)[C@@H](CO)O2)CN1 [KP-1212, reference compound]	3.3 mM	3.3 mM	–
CCOc1nc(=O)n([C@H]2C[C@H](O)[C@@H](CO)O2)cc1C [O^4-ethyl-2′-deoxythymidine]	0.33 mM	>3.3 mM	frequency of mispairing with dG (dG): approximately 25%
COc1nc(=O)n([C@H]2C[C@H](O)[C@@H](CO)O2)cc1C [O^4-methyl-2′-deoxythymidine]	>3.3 mM	>3.3 mM	frequency of mispairing with dG (dG): approximately 25%; increase in mis-incorporation (DNA polymerases): 20%; induction of lethal mutagenesis (HIV): induce lethal mutagenesis of HIV
CCOc1nc(N)nc2c1ncn2[C@H]1C[C@H](O)[C@@H](CO)O1 [O^6-ethyl dG]	–	–	frequency of base-pairing with thymidine [1]: 11%
COc1nc(N)nc2c1ncn2[C@H]1C[C@H](O)[C@@H](CO)O1 [O^6-methyl dG]	–	–	frequency of base-pairing with thymidine [1]: 19%
